# Test results as given in paper PMC7689490, “Designed CXCR4 mimic acts as a soluble chemokine receptor that blocks atherogenic inflammation by agonist-specific targeting” (Nature Communications, 2020).
# “And” between values parts separate entries of the source, which are not always exact repeats. Equal entries are not always repeated.
# Key:
# [1] = system: circulating inflammatory cytokines; assay: Plasma cytokine array in treated Apoe−/− mice; type: in vivo, mouse; conditions: reductions for IL-1α, IL-16, TNF-α, CXCL13/BLC; 6 vs 6 mice
# Procedure: Plasma samples were diluted (1:10) in array buffer; incubated with antibody detection cocktail for 1 h at RT, exposed to the blocked membranes (overnight, 4 °C), membranes washed and incubated with streptavidin-HRP conjugate working solution (30 min, RT). Membranes were developed with Chemi-Reagent Mix and analyzed by Odyssey® Fc imager. The average signal (mean signal intensity) of duplicate spots was quantified by ImageJ.
# [2] = system: human monocyte-derived macrophages; assay: LDLR and CXCR4 cell surface levels in macrophages (flow cytometry, Reviewer-only Figure 4); type: cell-based
# Procedure: crosstalk, or might even imply that CXCR4 and LDLR colocalize/complex and are subjected to a joint internalization event.
# We feel that these studies warrant further in-depth (and mechanistic) exploration, which are […]
# in the manuscript. We have therefore prepared them as Reviewer-only Figure 4 below.
# Supplementary part of the manuscript, we are happy to do so. […]
# expression and endocytosis in human monocyte-derived macrophages. LDLR and CXCR4 cell surface levels were measured by flow cytometry. Experiments were performed in the presence of LDL and the […]
# containing 100µg/mL penicillin, 100 µg/mL streptomycin, and 0.2% BSA) for 15 min at 37°C and subsequently exposed to LDL (25 µg/mL) for 15 min. After washing with PBS, cells were collected and incubated with anti-hLDLR-APC (1:100, R&D Systems, FAB2148A) and anti-CXCR4-PE (1:100, R&D Systems, FAB170P) at 4°C for 1 h. MIF stimulation enhances LDL-triggered internalization of LDLR and […]
# The data shown are from one of two experiments
# MIF dependent adhesion can be blocked, it is unclear whether MIF dependent adhesion to TNF-activated (since this stimulus seems relevant in in vivo settings) endothelial cells can be […]
# Response: Thank you for this important point. […]
# experiment and now include static adhesion data using TNF-primed endothelial cells in the […]
# MonoMac-6 / HAoEC [3] = assay: MIF-induced MonoMac-6 adhesion to HAoECs under flow; type: cell-based, human
# Procedure: HAoECs were seeded at a density of 60,000 cells per channel in collagen-coated Ibidi µ-Slides I 0.8 and incubated for 20–24 h until monolayers were confluent. […] Prior to the flow assay, MgSO4 and CaCl2 were added to MonoMac6 suspensions at a final concentration of 1 mM. Flow channels containing HAoEC monolayers were then perfused with MonoMac6 cells at a shear rate of 1.5 dyn cm^−2 for 10 min at 37 °C using the Ibidi Pump System/Perfusion Set. For quantification of adherent monocytes, images from four positions per channel were acquired using a Leica DMi8 inverted microscope (20 x objective) and quantified with ImageJ.
# [4] = mouse, in vivo
# MonoMac-6 / HAoEC [5] = assay: MIF-induced static adhesion of MonoMac-6 monocytes to HAoECs; type: cell-based, human
# Procedure: HAoECs were seeded at a density of 30,000 cells/well in 6 well µ-Ibidi Perfusion slides VI 0.4 (Ibidi GmbH). […] After perfusion of the chambers with fresh medium, MonoMac6 cells (1 × 10^6 cells mL^−1) in PromoCell medium were added for 30 min. Non-adhering cells were flushed away by gentle perfusion using a 30 mL syringe. To quantify adherent monocytes, seven individual images (technical triplicates each) from each treatment were acquired using a Leica DMi8 inverted microscope with a ×10 objective and cells quantified using ImageJ.
# [6] = MIF + msR4M-L1, individual replicates, n = 4
smiles,measurement,setting,value
"CC[C@H](C)[C@H](NC(=O)[C@H](Cc1ccc(O)cc1)NC(=O)[C@H](CCCNC(=N)N)NC(=O)[C@H](CC(=O)O)NC(=O)CCCCCCCCCCCNC(=O)CCCCCNC(=O)[C@H](CCCCN)NC(=O)[C@H](CS)NC(=O)[C@H](CC(C)C)NC(=O)[C@H](Cc1ccccc1)NC(=O)[C@H](CC(N)=O)NC(=O)CNC(=O)[C@H](Cc1ccccc1)NC(=O)[C@H](Cc1ccc(O)cc1)NC(=O)[C@H](Cc1c[nH]c2ccccc12)NC(=O)[C@H](CC(N)=O)NC(=O)[C@H](C)NC(=O)[C@@H](NC(=O)[C@H](C)NC(=O)[C@@H](N)CC(=O)O)C(C)C)C(=O)N[C@@H](CS)C(=O)N[C@@H](CC(=O)O)C(=O)N[C@@H](CCCNC(=N)N)C(=O)N[C@@H](Cc1ccccc1)C(=O)N[C@@H](Cc1ccc(O)cc1)C(=O)N1CCC[C@H]1C(=O)N[C@@H](CC(N)=O)C(=O)N[C@@H](CC(=O)O)C(=O)N[C@@H](CC(C)C)C(=O)N[C@@H](Cc1c[nH]c2ccccc12)C(=O)N[C@H](C(N)=O)C(C)C [msR4M-L1, CXCR4-ECL1[97–110]-6-Ahx-12-Ado-ECL2[182–196]]",circulating inflammatory cytokine levels,[1],marked reduction
same,"LDLR cell surface level (Q3), MIF + msR4M-L1","[2]; 80 nM MIF, 400 nM msR4M-L1, LDL 25 µg/mL, without MIF 15.1%, MIF alone 8.99%, one of two experiments",12.6%
same,"CXCR4 cell surface level (Q3), MIF + msR4M-L1","[2]; as E143, without MIF 39%, MIF alone […]",48.7%
same,effect on MIF-induced monocyte adhesion under flow,"MonoMac-6 / HAoEC [3]; 1.5 dyn/cm^2, 16 nM MIF, 320 nM msR4M-L1",inhibited monocyte adhesion
same,"Fig. 5c, MIF-induced monocyte adhesion",MonoMac-6 / HAoEC [3]; [6],206 and 207 and 188 and 291
same,"Fig. 5b, MIF-induced monocyte adhesion","MonoMac-6 / HAoEC [3]; TNF + MIF + msR4M-L1, individual replicates, n = 3",105.71 and 99.43 and 83.71
same,Body weight,[4],22.3 ± 0.2 g
same,"effect on MIF-induced static monocyte adhesion, TNF-α-prestimulated HAoECs","MonoMac-6 / HAoEC [5]; 40 pM TNF-α pre-treatment, 320 nM msR4M-L1",abrogated the effect of MIF
same,"effect on MIF-induced static monocyte adhesion, resting HAoECs","MonoMac-6 / HAoEC [5]; 16 nM MIF, 320 nM msR4M-L1, 16 h",blocked the pro-adhesion effect of MIF
same,"Fig. 5a, MIF-induced monocyte adhesion",MonoMac-6 / HAoEC [5]; [6],56.3 and 56.9 and 61.4 and 42.3
